Data set [1] in a line: Metabolic stability in cryopreserved human hepatocytes. The data set is classed as in vitro ADME. Particulars: human, cryopreserved human hepatocytes (pooled, suspension).
Experimental: Cryopreserved human hepatocytes (pooled suspension hepatocytes, Gibco) were thawed placing in a 37 °C shaking water bath according to the manufacturer’s specifications and resuspended in Williams E medium (WEM) to have 1 × 10^6 cells/mL. Samples with the test compound at 1 μM were incubated at 37 °C, and aliquots of 50 μL were collected at 0, 10, 30, 60, 120, and 240 min. The incubations were quenched 1:3 with ice-cold acetonitrile (containing 1 μM labetalol as the internal standard). Samples were then centrifuged at 12000 rpm for 5 min at 4 °C. The supernatant was concentrated by evaporation under a nitrogen stream and reconstituted with DMSO. Blank was prepared similarly but in the absence of the investigated compounds.
(§1) A Thermo Q-exactive mass spectrometer (Thermo Fisher Scientific, Waltham, MA) was used. The LC system, governed by Chromeleon X-press software, consists of a Binary pump, a thermostated autosampler, and a column compartment, all Dionex Ultimate 3000 series modules (Thermo Fisher Scientific, Waltham, MA). A volume of 2 μL was injected for each sample. Chromatographic separation of analytes was conducted in reverse-phase chromatography. In brief, a Luna Omega 1.6 μm Polar (C18, 2.1 mm × 150 mm) was used, and the mobile phases consisted of water (A) and acetonitrile (B), both containing formic acid at 0.1%. The LC flow was set at 0.400 mL/min in a 12 min gradient elution as follows: 99.5:0.5 (A/B) to 5:95 (A/B) over 10 min, 5:95 (A/B) for 2 min, and then reversion back to 99.5:0.5 (A/B) over 2.5 min. The column was operating at a constant temperature of 40 °C.
Data set [2] can be described thus: Nonenzymatic stability of 1 (dBet1) in the autosampler in four solutions during LC-MS. The data set is classed as physicochemical. Particulars: for nonenzymatic stability in autosampler: 12 h. As for the experimental part:
dBet1 (1) (10 mM in DMSO) was diluted 1:1000 in PBS/ACN (50:50, vol/vol) to afford a final concentration of 10 μM; 100 μL was drawn and dried under a gentle nitrogen stream at 40 °C for 30 min. After that evaporation was completed, the dry residue was reconstituted with 100 μL of DMSO. Additional three solutions of dBet1 (1) (10 μM) were prepared in PBS, PBS/ACN (50:50, vol/vol), and DMSO. The four solutions were stored into the autosampler of the LC apparatus at 37 °C for 12 h. Injections (2 μL) were programmed every 3 h.

A further data set concerns the target CYP3A4 (Homo sapiens, UniProt P08684). Kind of data set: in vitro. To be noted: pH 7.4.
In data set [3] the target is T1, aldehyde oxidase (hAOX, AOX1) (Homo sapiens, UniProt Q06278).
T1 construct: human aldehyde oxidase (hAOX), a cytosolic drug-metabolizing enzyme expressed in the human liver; tissue Gibco; host or cells: human liver cytosol
T1 sequence (Q06278 1-1338): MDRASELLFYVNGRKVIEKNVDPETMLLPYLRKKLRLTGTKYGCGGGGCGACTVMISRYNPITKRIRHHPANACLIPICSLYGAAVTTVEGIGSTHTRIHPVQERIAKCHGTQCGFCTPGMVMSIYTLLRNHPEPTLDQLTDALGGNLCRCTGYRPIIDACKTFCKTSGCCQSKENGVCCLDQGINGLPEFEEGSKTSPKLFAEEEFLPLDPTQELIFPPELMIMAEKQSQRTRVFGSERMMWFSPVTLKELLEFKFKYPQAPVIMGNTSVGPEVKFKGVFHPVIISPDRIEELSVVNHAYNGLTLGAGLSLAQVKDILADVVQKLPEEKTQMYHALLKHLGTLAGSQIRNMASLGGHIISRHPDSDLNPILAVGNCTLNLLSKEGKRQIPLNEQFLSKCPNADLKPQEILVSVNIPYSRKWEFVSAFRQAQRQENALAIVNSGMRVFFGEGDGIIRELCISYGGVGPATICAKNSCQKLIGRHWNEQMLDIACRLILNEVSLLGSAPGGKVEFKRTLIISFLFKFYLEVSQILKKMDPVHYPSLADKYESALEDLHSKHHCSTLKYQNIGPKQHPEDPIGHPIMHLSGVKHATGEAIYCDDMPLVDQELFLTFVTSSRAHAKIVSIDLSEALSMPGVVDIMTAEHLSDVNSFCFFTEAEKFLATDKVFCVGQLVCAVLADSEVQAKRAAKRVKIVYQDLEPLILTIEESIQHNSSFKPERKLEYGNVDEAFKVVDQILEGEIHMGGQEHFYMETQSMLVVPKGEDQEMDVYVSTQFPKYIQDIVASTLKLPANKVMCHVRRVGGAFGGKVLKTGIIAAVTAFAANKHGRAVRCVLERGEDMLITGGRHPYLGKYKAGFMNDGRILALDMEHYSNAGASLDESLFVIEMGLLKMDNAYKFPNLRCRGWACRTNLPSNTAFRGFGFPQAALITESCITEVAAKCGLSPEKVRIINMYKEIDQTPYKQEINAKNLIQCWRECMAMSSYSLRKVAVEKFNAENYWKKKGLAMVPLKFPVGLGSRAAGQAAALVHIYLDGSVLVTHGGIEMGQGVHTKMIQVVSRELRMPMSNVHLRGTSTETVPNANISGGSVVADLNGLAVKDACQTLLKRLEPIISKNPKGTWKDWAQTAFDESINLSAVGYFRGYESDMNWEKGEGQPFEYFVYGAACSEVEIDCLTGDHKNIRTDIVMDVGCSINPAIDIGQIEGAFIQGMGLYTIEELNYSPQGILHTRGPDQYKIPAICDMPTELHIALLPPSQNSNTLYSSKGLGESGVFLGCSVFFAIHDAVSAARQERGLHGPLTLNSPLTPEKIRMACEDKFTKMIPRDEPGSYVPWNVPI
Kind of data set: Metabolism in human liver cytosol with/without hydralazine (hAOX). The data set is classed as in vitro ADME. To be noted: human, human liver cytosol, pH 7.4; Figure 7A.
Experimental: (§2) Metabolism of the selected compounds was evaluated upon incubation with human liver cytosol (Gibco) and supersome recombinant CYP isoforms 3A4 expressed in baculovirus-infected insect cells (Gibco). For metabolism in CYP3A4, test compounds (1 μM) were incubated in 0.1 M potassium phosphate buffer (pH 7.4) and allowed to equilibrate at 37 °C. Freshly prepared 25 mM nicotinamide adenine dinucleotide phosphate (NADPH, 1 mM final concentration) was added to the incubation mixture to start the reaction. For metabolism in human liver cytosol, reactions were initiated by adding test compounds (1 μM) to the mix reaction constituted by the human liver cytosol (1 mg/mL) prewarmed in potassium phosphate buffer (pH 7.4). […] In both procedures, aliquots (50 μL) of the incubation mix were removed at 0, 10, 20, 30, and 60 min (CYP3A4) or 0, 30, 60, and 90 min (human liver cytosol) and added to 50 μL of ice-cold acetonitrile quench solution (internal standard, 1 μM labetalol) to stop the reaction. Samples were then centrifuged at 12 000 rpm for 5 min at 4 °C. The supernatant was concentrated by evaporation under a nitrogen stream and reconstituted in DMSO. The blank was prepared similarly but in the absence of the investigated compounds. Samples were then analyzed by LC–MS/MS (see the Analytical procedure).
as §1

Data set [4] deals with T2, human aldehyde oxidase (hAOX) in human liver cytosol (Homo sapiens, UniProt Q06278).
T2 construct: human aldehyde oxidase (hAOX), a cytosolic drug-metabolizing enzyme expressed in the human liver; tissue Gibco; host or cells: human liver cytosol
T2 sequence (Q06278 1-1338): T1 sequence (Q06278 1-1338)
The data set is described as above. The data set is classed as in vitro ADME. To be noted: for reactions observed in human liver cytosol: 30, 60, 90 min, absence and presence of hydralazine, both in the VHL ligand moiety; for hAOX percentage of substrate left at the final time point of analysis / hAOX t1/2: supplement CSV; for hAOX percentage of substrate left at the final time point of analysis: in brackets, final time point 90 min; for hAOX t1/2: human liver cytosol 1 mg/mL, up to 90 min.
Experimental: as §2, §1

[5] abbreviates: Figures 3-5, cryopreserved human hepatocytes, read-out: half-life (t1/2).
[6] abbreviates: Table S1, PROTACs, cryopreserved human hepatocytes, read-out: t1/2.
Where [7] appears, read: supplement CSV, human hepatocytes, read-out: HLH t1/2.

Read-outs that look alike come from different tables or passages of the source.

Sequence of CYP3A4 (P08684 whole entry): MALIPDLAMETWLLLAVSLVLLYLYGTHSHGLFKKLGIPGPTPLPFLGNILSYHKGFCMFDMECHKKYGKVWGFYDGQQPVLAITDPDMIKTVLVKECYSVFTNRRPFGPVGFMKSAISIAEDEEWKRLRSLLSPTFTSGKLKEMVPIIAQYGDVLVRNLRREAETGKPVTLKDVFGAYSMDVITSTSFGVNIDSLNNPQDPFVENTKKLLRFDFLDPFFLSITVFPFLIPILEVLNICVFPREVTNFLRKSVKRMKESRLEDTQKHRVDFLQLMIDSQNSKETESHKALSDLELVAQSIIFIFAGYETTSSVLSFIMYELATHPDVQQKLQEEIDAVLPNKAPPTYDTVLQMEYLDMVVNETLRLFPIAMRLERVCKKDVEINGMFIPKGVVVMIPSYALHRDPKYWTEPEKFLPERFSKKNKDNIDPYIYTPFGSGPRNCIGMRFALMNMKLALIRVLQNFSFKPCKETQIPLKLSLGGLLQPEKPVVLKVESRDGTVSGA
Experimental for CYP3A4: as §2, §1

With `Cc1sc2c(c1C)C(c1ccc(Cl)cc1)=N[C@@H](CC(=O)NCCCCNC(=O)COc1cccc3c1C(=O)N(C1CCC(=O)NC1=O)C3=O)c1nnc(C)n1-2` (stereo partly shown) [Compound 1, dBet1], the half-life at 1 µM in data set [1] (setting [5]), in data set [1] (setting [6]) and in data set [1] (setting [7]) was 2.25 h throughout. Besides, the “nonenzymatic stability in autosampler” value was “Degradation was also observed” in data set [2] (PBS/ACN (1:1 v/v), 37 °C); “very stable over time” in data set [2] (pure DMSO, 37 °C); “rapidly degrades” in data set [2] (pure PBS pH 7.4, 37 °C). For the same compound, the “substrate degradation within the first three hours” value in data set [2] (PBS/ACN-DMSO protocol, autosampler 37 °C) was “about 10%”.

For the compound `Cc1sc2c(c1C)C(c1ccc(Cl)cc1)=N[C@@H](CC(=O)NCCOCCOCCNc1cccc3c1C(=O)N(C1CCC(=O)NC1=O)C3=O)c1nnc(C)n1-2` (stereo partly drawn) [Compound 5, 2-((S)-4-(4-Chlorophenyl)-2,3,9-trimethyl-6H-thieno[3,2-f][1,2,4]triazolo[4,3-a][1,4]diazepin-6-yl)-N-(2-(2-(2-((2-(2,6-dioxopiperidin-3-yl)-1,3-dioxoisoindolin-4-yl)amino)ethoxy)ethoxy)ethyl)acetamide], the values for the half-life at 1 µM (in data set [1] (setting [6]); in data set [1] (setting [7]); at CYP3A4) were 0.823 h, 0.823 h and 0.0183 h, respectively.

As for `O=C(COc1c(-c2csc(N3CCOCC3)n2)ccc(F)c1F)NCCCCCCNc1cccc2c1C(=O)N(C1CCC(=O)NC1=O)C2=O` (stereo not shown) [Compound 29, 2-(2,3-Difluoro-6-(2-morpholinothiazol-4-yl)phenoxy)-N-(6-((2-(2,6-dioxopiperidin-3-yl)-1,3-dioxoisoindolin-4-yl)amino)hexyl)acetamide], the half-life at 1 µM in data set [1] (setting [6]) worked out at 0.892 h; in data set [1] (setting [7]), 0.892 h; on CYP3A4 it was 0.123 h.

`Cc1ncsc1-c1ccc([C@H](C)NC(=O)[C@@H]2C[C@@H](O)CN2C(=O)[C@@H](NC(=O)CCCCNC(=O)COc2c(-c3csc(N4CCOCC4)n3)ccc(F)c2F)C(C)(C)C)cc1` [Compound 33]: the half-life at 1 µM in data set [1] (setting [5]) was 1.24 h; in data set [1] (setting [6]), 1.24 h; in data set [1] (setting [7]), 1.24 h; in data set [3] it was > 1.5 h. For the same compound, the “reactions observed in human liver cytosol” value in data set [4] is “the hydrolysis of an amide and an oxidation”. Moreover, the “hAOX percentage of substrate left at the final time point of analysis” value in data set [4] is recorded as 83.5%. Besides, the “hAOX t1/2” value in data set [4] is > 1.5 h.

Take `Cc1ncsc1-c1ccc([C@H](C)NC(=O)[C@@H]2C[C@@H](O)CN2C(=O)[C@@H](NC(=O)CCCCN(C)C(=O)COc2c(-c3csc(N4CCOCC4)n3)ccc(F)c2F)C(C)(C)C)cc1` [Compound 34]: the half-life at 1 µM in data set [1] (setting [6]) is 1.43 h. Also, the half-life at 1 µM in data set [1] (setting [7]) turned out to be 1.43 h. For the same compound, the half-life at 1 µM in data set [3] is > 1.5 h. In data set [4], the “reactions observed in human liver cytosol” value is “the hydrolysis of an amide and an oxidation”; the “hAOX percentage of substrate left at the final time point of analysis” value was 83.4%; the “hAOX t1/2” value is > 1.5 h.

With `Cc1ncsc1-c1ccc([C@H](C)NC(=O)[C@@H]2C[C@@H](O)CN2C(=O)[C@@H](NC(=O)CCCCCCNC(=O)COc2c(-c3csc(N4CCOCC4)n3)ccc(F)c2F)C(C)(C)C)cc1` [Compound 35], the half-life at 1 µM is 0.417 h in data set [1] (setting [5]), 0.417 h in data set [1] (setting [6]), 0.417 h in data set [1] (setting [7]) and 0.0283 h on CYP3A4.

As for `Cc1ncsc1-c1ccc([C@H](CC(=O)NCCCCCCNC(=O)COc2c(-c3csc(N4CCOCC4)n3)ccc(F)c2F)NC(=O)[C@@H]2C[C@@H](O)CN2C(=O)[C@@H](NC(=O)C2(F)CC2)C(C)(C)C)cc1` [Compound 40], the half-life at 1 µM in data set [1] (setting [5]) amounted to 1.11 h; in data set [1] (setting [6]), 1.11 h; in data set [1] (setting [7]) it was 1.11 h; on CYP3A4, 0.377 h.

The record behind these values is article PMC8015227, “Understanding the Metabolism of Proteolysis Targeting Chimeras (PROTACs): The Next Step toward Pharmaceutical Applications” (Journal of Medicinal Chemistry, 2020).
